Reference: US12012417B2, “N-substituted tetrahydrothienopyridine derivatives and uses thereof” (NOVARTIS AG, priority 2018, dated 2024)
Counter-ions that a name gives are not always drawn.

Tests used:
[1] = tested on: Dengue 1 virus MY97-10245; assay: High-content imaging cell-based flavivirus immunodetection (HCl-CFI) assay, Dengue 1; settings: Dengue virus, A549, 48 h, read-out: Dengue 1 virus MY97-10245 in A549 using HCl [Inhibitor/IC50] Qualified AC50
[2] = tested on: Dengue 2 virus MY97-10340; assay: High-content imaging cell-based flavivirus immunodetection (HCl-CFI) assay, Dengue 2; settings: Dengue virus, A549, 48 h, read-out: Dengue 2 virus MY97-10340 in A549 using HCl [Inhibitor/IC50] Qualified AC50, A549 cells, MOI 0.3, 48 h, viral E protein expression
Outline: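 A549 cells infected at MOI 0.3, treated with 3-fold, 10-point compound dilutions for 48 h. After paraformaldehyde fixation, viral E protein immunostained with 4G2 antibody and nuclei counterstained; imaged by high-content imaging. EC50 = concentration reducing E protein expression by 50%, from dose-response curves.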

[3] = tested on: Dengue 3 virus MY05-34640-WT-C6/36; assay: High-content imaging cell-based flavivirus immunodetection (HCl-CFI) assay, Dengue 3; settings: Dengue virus, A549, 48 h, read-out: Dengue 3 virus MY05-34640-WT-C6/36 in A549 using HCl [Inhibitor/IC50] Qualified AC50
[4] = tested on: Dengue 4 virus MY01-22713; assay: High-content imaging cell-based flavivirus immunodetection (HCl-CFI) assay, Dengue 4; settings: Dengue virus, A549, 48 h, read-out: Dengue 4 virus MY01-22713 in A549 using HCl [Inhibitor/IC50] Qualified AC50, A549 cells, 48 h, viral E protein expression

Q: What does the source list for `CCC1(CC)Cc2sc(NC(=O)Cc3ccc(S(N)(=O)=O)cc3)c(C#N)c2CN1CC1CCCCC1` [Example 76, N-(3-cyano-5-(cyclohexylmethyl)-6,6-diethyl-4,5,6,7-tetrahydrothieno[3,2-c]pyridin-2-yl)-2-(4-sulfamoylphenyl)acetamide]?
A: EC50 [1]: < 100 nM; EC50 [2]: < 100 nM; EC50 [3]: < 100 nM; EC50 [4]: < 100 nM

Q: For `CCOc1cc(CC(=O)Nc2sc3c(c2C#N)CN(CC2CC(F)(F)C2)C(C)(C)C3)ccc1S(N)(=O)=O` [Example 78, N-(3-cyano-5-((3,3-difluorocyclobutyl)methyl)-6,6-dimethyl-4,5,6,7-tetrahydrothieno[3,2-c]pyridin-2-yl)-2-(3-ethoxy-4-sulfamoylphenyl)acetamide], which EC50 [1] is on record?
A: 100 to 1000 nM

Q: What about the EC50 [2] of the same molecule?
A: < 100 nM

Q: What about the EC50 [3] of the same molecule?
A: < 100 nM

Q: And the EC50 [4]?
A: < 100 nM

Q: How did the EC50 [1] turn out when `CCC1(CC)Cc2sc(NC(=O)Cc3ccc(S(N)(=O)=O)cc3)c(C#N)c2CN1CC1CC(F)(F)C1` [Example 79, N-(3-cyano-5-((3,3-difluorocyclobutyl)methyl)-6,6-diethyl-4,5,6,7-tetrahydrothieno[3,2-c]pyridin-2-yl)-2-(4-sulfamoylphenyl)acetamide] was run?
A: < 100 nM

Q: What about the EC50 [2] of the same molecule?
A: < 100 nM

Q: And the EC50 [3]?
A: < 100 nM

Q: And the EC50 [4]?
A: < 100 nM

Q: `CC1(C)CS(=O)(=O)c2ccc(CC(=O)Nc3sc4c(c3C#N)CN(Cc3cccc(F)c3)C(C)(C)C4)cc21` [Example 80, N-(3-cyano-5-(3-fluorobenzyl)-6,6-dimethyl-4,5,6,7-tetrahydrothieno[3,2-c]pyridin-2-yl)-2-(3,3-dimethyl-1,1-dioxido-2,3-dihydrobenzo[b]thiophen-5-yl)acetamide] was tested. Which EC50 [1] did it give?
A: 100 to 1000 nM

Q: What about the EC50 [2] of the same molecule?
A: < 100 nM

Q: What about the EC50 [3] of the same molecule?
A: < 100 nM

Q: And the EC50 [4]?
A: < 100 nM

Q: Which EC50 [1] does the source give for `CC1(C)Cc2sc(NC(=O)Cc3ccc(S(N)(=O)=O)cc3)c(C#N)c2CN1Cc1cccc(F)c1` [Example 81, N-(3-cyano-5-(3-fluorobenzyl)-6,6-dimethyl-4,5,6,7-tetrahydrothieno[3,2-c]pyridin-2-yl)-2-(4-sulfamoylphenyl)acetamide] here?
A: 100 to 1000 nM

Q: And the EC50 [2]?
A: < 100 nM

Q: And the EC50 [3]?
A: < 100 nM

Q: What about the EC50 [4] of the same molecule?
A: < 100 nM

Q: Which results are given for `COc1cc(CC(=O)Nc2sc3c(c2C#N)CN(CC2CCCCC2)C(C)(C)C3)ccc1S(N)(=O)=O` [Example 82, N-(3-cyano-5-(cyclohexylmethyl)-6,6-dimethyl-4,5,6,7-tetrahydrothieno[3,2-c]pyridin-2-yl)-2-(3-methoxy-4-sulfamoylphenyl)acetamide]?
A: EC50 [1]: < 100 nM; EC50 [2]: < 100 nM; EC50 [3]: < 100 nM; EC50 [4]: < 100 nM

Q: `N#Cc1c(NC(=O)Cc2ccc(S(N)(=O)=O)s2)sc2c1CN(CC1CCCCC1)CC2` [Example 84, N-(3-cyano-5-(cyclohexylmethyl)-4,5,6,7-tetrahydrothieno[3,2-c]pyridin-2-yl)-2-(5-sulfamoylthiophen-2-yl)acetamide] was tested. Which EC50 [1] did it give?
A: < 100 nM

Q: And the EC50 [2]?
A: < 100 nM

Q: What about the EC50 [3] of the same molecule?
A: < 100 nM

Q: What about the EC50 [4] of the same molecule?
A: < 100 nM

Q: What does the source list for `CC1Cc2sc(NC(=O)Cc3ccc(S(N)(=O)=O)cc3)c(C#N)c2CN1Cc1cc(F)cc(F)c1` (stereo not drawn) [Example 85, N-(3-cyano-5-(3,5-difluorobenzyl)-6-methyl-4,5,6,7-tetrahydrothieno[3,2-c]pyridin-2-yl)-2-(4-sulfamoylphenyl)acetamide]?
A: EC50 [1]: 100 to 1000 nM; EC50 [2]: < 100 nM; EC50 [3]: < 100 nM; EC50 [4]: < 100 nM

Q: Which results are given for `COCCOc1cc(CC(=O)Nc2sc3c(c2C#N)CN(Cc2cccc(F)c2)C(C)C3)ccc1S(N)(=O)=O` (stereo not drawn) [Example 86, N-(3-cyano-5-(3-fluorobenzyl)-6-methyl-4,5,6,7-tetrahydrothieno[3,2-c]pyridin-2-yl)-2-(3-(2-methoxyethoxy)-4-sulfamoylphenyl)acetamide]?
A: EC50 [1]: 100 to 1000 nM; EC50 [2]: < 100 nM; EC50 [3]: < 100 nM; EC50 [4]: < 100 nM

Q: With `CCC1Cc2sc(NC(=O)Cc3ccc(S(N)(=O)=O)cc3)c(C#N)c2CN1Cc1cccc(F)c1` (stereo not drawn) [Example 87, N-(3-cyano-6-ethyl-5-(3-fluorobenzyl)-4,5,6,7-tetrahydrothieno[3,2-c]pyridin-2-yl)-2-(4-sulfamoylphenyl)acetamide] as the molecule, how does the EC50 [1] read?
A: 100 to 1000 nM

Q: What about the EC50 [2] of the same molecule?
A: < 100 nM

Q: And the EC50 [3]?
A: < 100 nM

Q: What about the EC50 [4] of the same molecule?
A: < 100 nM

Q: Which results are given for `Cn1cc(S(N)(=O)=O)cc1CC(=O)Nc1sc2c(c1C#N)CN(CC1CCCCC1)CC2` [Example 88, N-(3-cyano-5-(cyclohexylmethyl)-4,5,6,7-tetrahydrothieno[3,2-c]pyridin-2-yl)-2-(1-methyl-4-sulfamoyl-1H-pyrrol-2-yl)acetamide]?
A: EC50 [1]: 100 to 1000 nM; EC50 [2]: < 100 nM; EC50 [3]: < 100 nM; EC50 [4]: < 100 nM

Q: How did the EC50 [1] turn out when `CCOc1cc(CC(=O)Nc2sc3c(c2C#N)CN(Cc2cccc(F)c2)CC3)ccc1C(N)=O` [Example 89, 4-(2-((3-cyano-5-(3-fluorobenzyl)-4,5,6,7-tetrahydrothieno[3,2-c]pyridin-2-yl)amino)-2-oxoethyl)-2-ethoxybenzamide] was run?
A: 100 to 1000 nM

Q: And the EC50 [2]?
A: 100 to 1000 nM

Q: What about the EC50 [3] of the same molecule?
A: 100 to 1000 nM

Q: And the EC50 [4]?
A: 100 to 1000 nM

Q: Which EC50 [1] does the source give for `CC(c1ccccc1)N1CCc2c(sc(NC(=O)Cc3ccc(S(N)(=O)=O)cc3)c2C#N)C1` (stereo not drawn) [Example 90, N-(3-cyano-6-(1-phenylethyl)-4,5,6,7-tetrahydrothieno[2,3-c]pyridin-2-yl)-2-(4-sulfamoylphenyl)-acetamide hydrochloride] here?
A: > 1000 nM

Q: What about the EC50 [2] of the same molecule?
A: 100 to 1000 nM

Q: What about the EC50 [3] of the same molecule?
A: 100 to 1000 nM

Q: And the EC50 [4]?
A: 100 to 1000 nM

Q: With `N#Cc1c(NC(=O)Cc2ccc(S(N)(=O)=O)cc2)sc2c1CCN(CC1CCCCC1)C2` [Example 92, N-(3-cyano-6-(cyclohexylmethyl)-4,5,6,7-tetrahydrothieno[2,3-c]pyridin-2-yl)-2-(4-sulfamoylphenyl) acetamide] as the molecule, how does the EC50 [1] read?
A: 100 to 1000 nM

Q: What about the EC50 [2] of the same molecule?
A: < 100 nM

Q: And the EC50 [3]?
A: 100 to 1000 nM

Q: And the EC50 [4]?
A: < 100 nM

Q: How did the EC50 [1] turn out when `N#Cc1c(NC(=O)Cc2ccc(S(N)(=O)=O)cc2)sc2c1CCN(Cc1cc(F)cc(F)c1)C2` [Example 93, N-(3-cyano-6-(3,5-difluorobenzyl)-4,5,6,7-tetrahydrothieno[2,3-c]pyridin-2-yl)-2-(4-sulfamoylphenyl) acetamide] was run?
A: 100 to 1000 nM

Q: And the EC50 [2]?
A: < 100 nM

Q: What about the EC50 [3] of the same molecule?
A: < 100 nM

Q: And the EC50 [4]?
A: < 100 nM

Q: With `COc1ccccc1CN1CCc2c(sc(NC(=O)Cc3ccc(S(N)(=O)=O)cc3)c2C#N)C1` [Example 94, N-(3-cyano-6-(2-methoxybenzyl)-4,5,6,7-tetrahydrothieno[2,3-c]pyridin-2-yl)-2-(4-sulfamoylphenyl) acetamide] as the molecule, how does the EC50 [1] read?
A: > 1000 nM

Q: And the EC50 [2]?
A: > 1000 nM

Q: What about the EC50 [3] of the same molecule?
A: 100 to 1000 nM

Q: And the EC50 [4]?
A: 100 to 1000 nM

Q: What does the source list for `Cc1cccc(CN2CCc3c(sc(NC(=O)Cc4ccc(S(N)(=O)=O)cc4)c3C#N)C2)c1C` [Example 95, N-(3-cyano-6-(2,3-dimethylbenzyl)-4,5,6,7-tetrahydrothieno[2,3-c]pyridin-2-yl)-2-(4-sulfamoylphenyl) acetamide]?
A: EC50 [1]: 100 to 1000 nM; EC50 [2]: 100 to 1000 nM; EC50 [3]: < 100 nM; EC50 [4]: < 100 nM

Q: What does the source list for `Cc1ccccc1CN1CCc2c(sc(NC(=O)Cc3ccc(S(N)(=O)=O)cc3)c2C#N)C1` [Example 97, N-(3-cyano-6-(2-methylbenzyl)-4,5,6,7-tetrahydrothieno[2,3-c]pyridin-2-yl)-2-(4-sulfamoylphenyl)acetamide]?
A: EC50 [1]: 100 to 1000 nM; EC50 [2]: 100 to 1000 nM; EC50 [3]: 100 to 1000 nM; EC50 [4]: 100 to 1000 nM

Q: Which results are given for `Cc1ccc(CN2CCc3c(sc(NC(=O)Cc4ccc(S(N)(=O)=O)cc4)c3C#N)C2)cc1` [Example 98, N-(3-cyano-6-(4-methylbenzyl)-4,5,6,7-tetrahydrothieno[2,3-c]pyridin-2-yl)-2-(4-sulfamoylphenyl)acetamide]?
A: EC50 [1]: > 1000 nM; EC50 [2]: 100 to 1000 nM; EC50 [3]: 100 to 1000 nM; EC50 [4]: 100 to 1000 nM

Q: With `N#Cc1c(NC(=O)Cc2ccc(S(N)(=O)=O)cc2)sc2c1CCN(Cc1ccccc1F)C2` [Example 99, N-(3-cyano-6-(2-fluorobenzyl)-4,5,6,7-tetrahydrothieno[2,3-c]pyridin-2-yl)-2-(4-sulfamoylphenyl)acetamide] as the molecule, how does the EC50 [1] read?
A: > 1000 nM

Q: And the EC50 [2]?
A: 100 to 1000 nM

Q: What about the EC50 [3] of the same molecule?
A: 100 to 1000 nM

Q: What about the EC50 [4] of the same molecule?
A: 100 to 1000 nM

Q: Which EC50 [1] does the source give for `N#Cc1c(NC(=O)Cc2ccc(S(N)(=O)=O)cc2)sc2c1CCN(Cc1ccc(F)cc1)C2` [Example 101, N-(3-cyano-6-(4-fluorobenzyl)-4,5,6,7-tetrahydrothieno[2,3-c]pyridin-2-yl)-2-(4-sulfamoylphenyl)acetamide] here?
A: 100 to 1000 nM

Q: What about the EC50 [2] of the same molecule?
A: 100 to 1000 nM

Q: What about the EC50 [3] of the same molecule?
A: 100 to 1000 nM

Q: And the EC50 [4]?
A: < 100 nM

Q: What does the source list for `Cc1cccc(CN2CCc3c(sc(NC(=O)Cc4ccc(S(N)(=O)=O)cc4)c3C#N)C2)c1` [Example 102, N-(3-cyano-6-(3-methylbenzyl)-4,5,6,7-tetrahydrothieno[2,3-c]pyridin-2-yl)-2-(4-sulfamoylphenyl)acetamide]?
A: EC50 [1]: > 1000 nM; EC50 [2]: 100 to 1000 nM; EC50 [3]: 100 to 1000 nM; EC50 [4]: 100 to 1000 nM

Q: What does the source list for `Cc1ccccc1CN1CCc2c(sc(NC(=O)Cc3ccc(S(C)(=O)=O)cc3)c2C#N)C1` [Example 103, N-(3-cyano-6-(2-methylbenzyl)-4,5,6,7-tetrahydrothieno[2,3-c]pyridin-2-yl)-2-(4-(methylsulfonyl)phenyl)acetamide]?
A: EC50 [1]: 100 to 1000 nM; EC50 [2]: 100 to 1000 nM; EC50 [3]: 100 to 1000 nM; EC50 [4]: 100 to 1000 nM

Q: For `Cc1cccc(CN2CCc3c(sc(NC(=O)Cc4ccc(S(C)(=O)=O)cc4)c3C#N)C2)c1` [Example 104, N-(3-cyano-6-(3-methylbenzyl)-4,5,6,7-tetrahydrothieno[2,3-c]pyridin-2-yl)-2-(4-(methylsulfonyl)phenyl)acetamide], which EC50 [1] is on record?
A: > 1000 nM

Q: And the EC50 [2]?
A: 100 to 1000 nM

Q: What about the EC50 [3] of the same molecule?
A: 100 to 1000 nM

Q: What about the EC50 [4] of the same molecule?
A: < 100 nM
